Experimental data taken from article PMC12136037, “Type II kinase inhibitors that target Parkinson’s disease–associated LRRK2” (Science Advances, 2025).

Key:
Assay in all cases: DSF 100 kinase selectivity screen;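 further: compound tested at 20 µM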
Assay type in all cases: binding
[1] = biological target: T1, ~100 representative kinases (Homo sapiens, UniProt P17948); conditions: protein FLT1; average of three replicates
T1 construct: Recombinant protein kinase domains with a concentration of 2 μM
T1 sequence (P17948 27-1338): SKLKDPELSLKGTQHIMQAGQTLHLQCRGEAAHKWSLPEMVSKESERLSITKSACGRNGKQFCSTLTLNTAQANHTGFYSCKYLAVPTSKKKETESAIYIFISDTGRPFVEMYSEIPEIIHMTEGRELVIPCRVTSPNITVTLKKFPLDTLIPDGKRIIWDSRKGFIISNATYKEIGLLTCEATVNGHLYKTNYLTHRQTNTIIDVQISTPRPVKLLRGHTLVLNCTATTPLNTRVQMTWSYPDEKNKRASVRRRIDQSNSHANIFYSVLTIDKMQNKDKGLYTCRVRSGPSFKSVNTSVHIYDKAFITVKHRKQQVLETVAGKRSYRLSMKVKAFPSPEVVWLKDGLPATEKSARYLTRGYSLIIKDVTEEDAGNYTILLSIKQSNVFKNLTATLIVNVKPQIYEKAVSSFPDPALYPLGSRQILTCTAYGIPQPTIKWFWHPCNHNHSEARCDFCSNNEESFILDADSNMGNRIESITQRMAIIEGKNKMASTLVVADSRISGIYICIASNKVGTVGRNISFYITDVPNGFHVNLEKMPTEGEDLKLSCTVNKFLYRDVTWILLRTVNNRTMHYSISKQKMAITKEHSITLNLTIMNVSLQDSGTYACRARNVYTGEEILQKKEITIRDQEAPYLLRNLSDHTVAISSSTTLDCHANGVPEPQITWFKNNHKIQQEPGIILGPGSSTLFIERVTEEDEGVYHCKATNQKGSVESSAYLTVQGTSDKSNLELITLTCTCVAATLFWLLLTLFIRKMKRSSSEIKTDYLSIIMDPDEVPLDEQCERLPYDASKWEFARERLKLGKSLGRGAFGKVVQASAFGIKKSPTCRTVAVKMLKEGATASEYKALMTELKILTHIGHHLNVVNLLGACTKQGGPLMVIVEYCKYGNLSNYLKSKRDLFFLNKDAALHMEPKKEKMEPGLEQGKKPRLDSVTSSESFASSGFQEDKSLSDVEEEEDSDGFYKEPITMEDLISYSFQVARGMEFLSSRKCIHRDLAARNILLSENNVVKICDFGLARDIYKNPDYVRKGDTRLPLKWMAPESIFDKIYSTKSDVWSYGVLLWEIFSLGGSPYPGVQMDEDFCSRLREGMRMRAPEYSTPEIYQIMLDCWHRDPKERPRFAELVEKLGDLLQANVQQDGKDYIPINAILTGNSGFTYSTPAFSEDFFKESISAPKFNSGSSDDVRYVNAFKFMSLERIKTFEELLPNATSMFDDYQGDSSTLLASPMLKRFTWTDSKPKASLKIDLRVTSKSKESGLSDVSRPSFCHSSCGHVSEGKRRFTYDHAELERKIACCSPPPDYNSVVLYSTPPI
Summary of the method: (§1)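 Each kinase domain, at 2 μM, is mixed with 20 μM test compound and SYPRO Orange in Hepes (20 mM, pH 7.5) with 500 mM NaCl. Temperature is then raised at 3°C/min and fluorescence-monitored unfolding yields the melting temperature change, ΔTm in degrees Celsius.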

[2] = biological target: T2, ~100 representative kinases (Homo sapiens, UniProt Q8TDX7); conditions: protein NEK7; average of three replicates
T2 construct: Recombinant protein kinase domains with a concentration of 2 μM
T2 sequence (Q8TDX7 whole entry, the tested form may be a part): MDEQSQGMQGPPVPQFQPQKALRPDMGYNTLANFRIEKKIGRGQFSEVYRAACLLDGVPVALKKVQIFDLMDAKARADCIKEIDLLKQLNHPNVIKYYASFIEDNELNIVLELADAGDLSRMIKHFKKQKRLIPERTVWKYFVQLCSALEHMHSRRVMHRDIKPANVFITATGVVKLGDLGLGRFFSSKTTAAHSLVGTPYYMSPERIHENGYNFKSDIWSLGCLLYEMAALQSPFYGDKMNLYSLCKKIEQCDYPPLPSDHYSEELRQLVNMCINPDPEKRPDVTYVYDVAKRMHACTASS
Summary of the method: as §1

[3] = biological target: T3, ~100 representative kinases (Homo sapiens, UniProt Q12866); conditions: protein MERTK; average of three replicates
T3 construct: Recombinant protein kinase domains with a concentration of 2 μM
T3 sequence (Q12866 21-999): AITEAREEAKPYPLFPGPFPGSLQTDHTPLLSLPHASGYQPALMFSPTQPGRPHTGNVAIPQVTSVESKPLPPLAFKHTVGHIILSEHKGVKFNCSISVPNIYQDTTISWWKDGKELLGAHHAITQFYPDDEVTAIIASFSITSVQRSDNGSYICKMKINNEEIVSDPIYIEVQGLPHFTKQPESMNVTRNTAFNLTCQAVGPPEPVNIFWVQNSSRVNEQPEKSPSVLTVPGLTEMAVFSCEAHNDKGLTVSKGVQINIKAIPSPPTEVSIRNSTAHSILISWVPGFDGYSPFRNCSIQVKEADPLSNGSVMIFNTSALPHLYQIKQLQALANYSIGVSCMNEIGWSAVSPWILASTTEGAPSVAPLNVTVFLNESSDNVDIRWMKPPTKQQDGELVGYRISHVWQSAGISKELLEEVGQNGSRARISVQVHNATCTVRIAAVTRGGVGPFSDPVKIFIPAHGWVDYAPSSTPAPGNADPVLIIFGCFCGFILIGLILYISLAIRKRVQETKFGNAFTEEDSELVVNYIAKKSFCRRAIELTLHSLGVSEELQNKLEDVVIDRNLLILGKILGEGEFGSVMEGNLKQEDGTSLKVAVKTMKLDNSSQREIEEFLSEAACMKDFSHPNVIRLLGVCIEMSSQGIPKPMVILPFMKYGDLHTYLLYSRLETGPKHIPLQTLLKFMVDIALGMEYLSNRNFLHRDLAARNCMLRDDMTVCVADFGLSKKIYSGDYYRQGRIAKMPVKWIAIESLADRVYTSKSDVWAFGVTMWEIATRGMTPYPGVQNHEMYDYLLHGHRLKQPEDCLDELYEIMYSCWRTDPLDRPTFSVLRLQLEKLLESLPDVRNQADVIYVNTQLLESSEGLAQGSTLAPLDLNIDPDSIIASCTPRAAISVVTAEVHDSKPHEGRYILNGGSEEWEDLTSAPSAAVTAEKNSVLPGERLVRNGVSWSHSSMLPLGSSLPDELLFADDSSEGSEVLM
Summary of the method: as §1

[4] = biological target: T4, ~100 representative kinases (Homo sapiens, UniProt O75582); conditions: Protein RPS6KA5; DSF; average of three replicates
T4 construct: Recombinant protein kinase domains with a concentration of 2 μM
T4 sequence (O75582 whole entry, the tested form may be a part): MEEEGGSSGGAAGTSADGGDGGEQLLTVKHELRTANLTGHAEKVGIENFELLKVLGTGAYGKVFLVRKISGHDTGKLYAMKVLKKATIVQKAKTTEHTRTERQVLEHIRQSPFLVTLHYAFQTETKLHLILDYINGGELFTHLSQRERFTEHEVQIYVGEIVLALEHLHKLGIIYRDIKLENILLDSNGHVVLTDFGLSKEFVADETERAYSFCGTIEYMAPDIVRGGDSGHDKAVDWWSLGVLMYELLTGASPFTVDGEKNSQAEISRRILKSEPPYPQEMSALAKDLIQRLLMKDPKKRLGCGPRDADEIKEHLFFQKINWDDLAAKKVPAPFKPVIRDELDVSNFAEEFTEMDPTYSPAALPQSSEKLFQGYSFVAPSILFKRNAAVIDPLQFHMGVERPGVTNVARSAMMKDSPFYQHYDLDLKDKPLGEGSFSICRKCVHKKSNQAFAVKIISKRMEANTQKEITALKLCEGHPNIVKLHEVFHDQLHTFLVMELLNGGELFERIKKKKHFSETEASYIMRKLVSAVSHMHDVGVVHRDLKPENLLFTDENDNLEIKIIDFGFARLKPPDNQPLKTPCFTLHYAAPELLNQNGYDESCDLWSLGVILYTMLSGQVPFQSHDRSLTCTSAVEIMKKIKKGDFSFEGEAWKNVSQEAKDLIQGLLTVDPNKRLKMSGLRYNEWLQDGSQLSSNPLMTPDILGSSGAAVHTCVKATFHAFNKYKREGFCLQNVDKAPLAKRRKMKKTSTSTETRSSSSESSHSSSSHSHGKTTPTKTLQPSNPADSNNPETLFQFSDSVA
Summary of the method: as §1

[5] = biological target: T5, ~100 representative kinases (Homo sapiens, UniProt P21675); conditions: Protein TAF1; DSF; average of three replicates
T5 construct: Recombinant protein kinase domains with a concentration of 2 μM
Summary of the method: as §1

[6] = biological target: T6, ~100 representative kinases (Homo sapiens, UniProt Q9H2G2); conditions: Protein SLK; DSF; average of three replicates
T6 construct: Recombinant protein kinase domains with a concentration of 2 μM
T6 sequence (Q9H2G2 whole entry, the tested form may be a part): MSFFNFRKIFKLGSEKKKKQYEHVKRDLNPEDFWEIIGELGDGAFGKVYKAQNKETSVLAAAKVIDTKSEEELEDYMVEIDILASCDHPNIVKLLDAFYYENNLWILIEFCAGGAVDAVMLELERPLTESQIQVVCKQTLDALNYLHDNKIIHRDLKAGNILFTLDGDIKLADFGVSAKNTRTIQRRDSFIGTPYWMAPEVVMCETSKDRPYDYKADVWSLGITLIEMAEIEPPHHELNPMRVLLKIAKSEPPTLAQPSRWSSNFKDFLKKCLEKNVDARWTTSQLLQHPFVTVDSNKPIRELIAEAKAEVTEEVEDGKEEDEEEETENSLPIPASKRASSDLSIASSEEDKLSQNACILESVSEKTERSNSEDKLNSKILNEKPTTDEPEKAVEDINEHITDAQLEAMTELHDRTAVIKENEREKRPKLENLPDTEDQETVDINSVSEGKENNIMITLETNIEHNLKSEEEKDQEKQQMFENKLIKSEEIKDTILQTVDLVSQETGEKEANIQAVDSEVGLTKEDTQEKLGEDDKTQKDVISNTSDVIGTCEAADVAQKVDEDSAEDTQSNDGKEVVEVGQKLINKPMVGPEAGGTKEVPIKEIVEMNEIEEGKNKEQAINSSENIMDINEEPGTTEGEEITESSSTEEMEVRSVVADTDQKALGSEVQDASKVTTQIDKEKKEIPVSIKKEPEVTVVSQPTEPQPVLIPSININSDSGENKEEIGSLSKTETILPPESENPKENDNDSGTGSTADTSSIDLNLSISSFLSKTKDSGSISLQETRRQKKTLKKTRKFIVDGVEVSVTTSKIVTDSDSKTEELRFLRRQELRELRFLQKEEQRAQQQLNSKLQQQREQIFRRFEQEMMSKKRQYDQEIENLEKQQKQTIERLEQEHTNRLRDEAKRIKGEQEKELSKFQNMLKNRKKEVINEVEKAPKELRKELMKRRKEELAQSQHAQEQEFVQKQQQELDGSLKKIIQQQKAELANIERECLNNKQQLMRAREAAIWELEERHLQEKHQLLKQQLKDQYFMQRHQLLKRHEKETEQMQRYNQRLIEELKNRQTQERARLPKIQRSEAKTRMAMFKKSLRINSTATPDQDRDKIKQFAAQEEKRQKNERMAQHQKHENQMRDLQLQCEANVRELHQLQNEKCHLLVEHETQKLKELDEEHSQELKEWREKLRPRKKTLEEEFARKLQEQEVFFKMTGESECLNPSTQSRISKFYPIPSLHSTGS
Summary of the method: as §1

[7] = biological target: T7, ~100 representative kinases (Homo sapiens, UniProt Q9UEE5); conditions: Protein STK17A; DSF; average of three replicates
T7 construct: Recombinant protein kinase domains with a concentration of 2 μM
T7 sequence (Q9UEE5 1-414): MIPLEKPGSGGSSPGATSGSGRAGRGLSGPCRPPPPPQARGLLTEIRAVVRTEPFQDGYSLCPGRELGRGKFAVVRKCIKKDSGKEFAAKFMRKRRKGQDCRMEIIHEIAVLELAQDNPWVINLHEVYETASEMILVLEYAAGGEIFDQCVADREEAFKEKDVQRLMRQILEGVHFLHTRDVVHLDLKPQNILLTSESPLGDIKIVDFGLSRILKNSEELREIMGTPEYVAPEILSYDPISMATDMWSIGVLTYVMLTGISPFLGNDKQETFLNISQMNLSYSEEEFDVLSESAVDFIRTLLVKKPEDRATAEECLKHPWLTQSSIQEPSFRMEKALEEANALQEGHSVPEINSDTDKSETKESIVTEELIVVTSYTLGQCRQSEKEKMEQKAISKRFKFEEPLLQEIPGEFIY
Summary of the method: as §1

[8] = biological target: T8, ~100 representative kinases (Homo sapiens, UniProt P33981); conditions: Protein TTK; DSF; average of three replicates
T8 construct: Recombinant protein kinase domains with a concentration of 2 μM
T8 sequence (P33981 1-857): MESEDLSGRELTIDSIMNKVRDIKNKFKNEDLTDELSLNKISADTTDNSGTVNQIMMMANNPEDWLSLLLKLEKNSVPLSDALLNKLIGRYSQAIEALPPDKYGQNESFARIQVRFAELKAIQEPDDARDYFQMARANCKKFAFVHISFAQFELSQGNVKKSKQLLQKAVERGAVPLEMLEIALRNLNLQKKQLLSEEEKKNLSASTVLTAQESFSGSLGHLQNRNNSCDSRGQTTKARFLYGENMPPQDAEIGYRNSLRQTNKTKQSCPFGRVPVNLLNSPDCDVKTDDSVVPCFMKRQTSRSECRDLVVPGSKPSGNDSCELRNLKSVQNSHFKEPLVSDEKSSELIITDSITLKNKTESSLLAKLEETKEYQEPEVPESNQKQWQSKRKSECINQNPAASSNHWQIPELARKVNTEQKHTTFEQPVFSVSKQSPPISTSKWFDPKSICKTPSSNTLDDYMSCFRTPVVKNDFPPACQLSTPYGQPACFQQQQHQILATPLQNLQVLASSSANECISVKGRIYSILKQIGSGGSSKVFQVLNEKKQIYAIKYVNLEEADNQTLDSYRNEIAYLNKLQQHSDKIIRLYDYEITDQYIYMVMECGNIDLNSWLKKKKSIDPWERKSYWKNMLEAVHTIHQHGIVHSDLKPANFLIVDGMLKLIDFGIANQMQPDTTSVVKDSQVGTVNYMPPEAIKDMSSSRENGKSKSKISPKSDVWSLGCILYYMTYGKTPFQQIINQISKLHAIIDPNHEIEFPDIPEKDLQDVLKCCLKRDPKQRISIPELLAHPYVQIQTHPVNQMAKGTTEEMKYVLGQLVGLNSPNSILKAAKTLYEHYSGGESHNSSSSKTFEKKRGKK
Summary of the method: as §1

Row | Compound | dTm [1] | dTm [2] | dTm [3] | dTm [4] | dTm [5] | dTm [6] | dTm [7] | dTm [8]
1 | CCc1ccc(NC(=O)C2(C(=O)Nc3cccc(-c4c[nH]c5ncnc(N6CCOCC6)c45)c3)CC2)cc1 [Compound 15] | 0.00 K | -0.42 K | 0.37 K | 2.22 K | 1.78 K | 5.04 K | -0.28 K | 6.77 K
2 | COc1ccc(NC(=O)C2(C(=O)Nc3cccc(-c4c[nH]c5ncnc(N6CCOCC6)c45)c3)CC2)cc1 [Compound 16] | 2.53 K | -0.67 K | -1.03 K | 0.21 K | 0.37 K | 1.57 K | -0.48 K | 3.48 K
3 | O=C(Nc1cccc(-c2c[nH]c3ncnc(N4CCOCC4)c23)c1)C1(C(=O)Nc2ccc(F)c(F)c2)CC1 [Compound 17] | 3.85 K | 1.01 K | 1.34 K | 6.14 K | 0.99 K | 7.02 K | 0.99 K | 6.18 K
4 | O=C(Nc1cccc(-c2c[nH]c3ncnc(N4CCOCC4)c23)c1)C1(C(=O)Nc2ccc(F)c(Cl)c2)CC1 [Compound 18] | 0.43 K | 1.61 K | 1.59 K | -1.56 K | 1.40 K | 8.41 K | 2.92 K | 8.02 K
5 | O=C(Nc1cccc(-c2c[nH]c3ncnc(N4CCOCC4)c23)c1)C1(C(=O)Nc2ccc(F)c(Br)c2)CC1 [Compound 19] | 3.75 K | -1.14 K | 2.86 K | 6.08 K | 0.00 K | 8.05 K | 2.37 K | 9.93 K
6 | Cc1cc(NC(=O)C2(C(=O)Nc3cccc(-c4c[nH]c5ncnc(N6CCOCC6)c45)c3)CC2)ccc1F [Compound 20] | -2.83 K | 0.98 K | 2.15 K | 7.70 K | 0.99 K | 8.94 K | 2.25 K | 8.62 K
7 | COc1cc(NC(=O)C2(C(=O)Nc3cccc(-c4c[nH]c5ncnc(N6CCOCC6)c45)c3)CC2)ccc1F [Compound 21] | 4.43 K | 0.39 K | 0.18 K | 4.31 K | 0.37 K | 6.44 K | 0.20 K | 7.84 K

Other lines, results leading:

Row | dTm [1] | dTm [2] | dTm [3] | dTm [4] | dTm [5] | dTm [6] | dTm [7] | dTm [8] | Compound
8 | 2.44 K | 0.18 K | 2.25 K | 1.50 K | 1.24 K | 5.75 K | -0.64 K | 5.44 K | CC(C)(C)c1cccc(NC(=O)C2(C(=O)Nc3cccc(-c4c[nH]c5ncnc(N6CCOCC6)c45)c3)CC2)c1 [Compound 22]
9 | 3.92 K | 0.03 K | 0.52 K | 0.48 K | 0.59 K | 4.42 K | -0.31 K | -5.86 K | O=C(Nc1cccc(-c2c[nH]c3ncnc(N4CCOCC4)c23)c1)C1(C(=O)Nc2ccc(F)cc2F)CC1 [Compound 23]
10 | 4.10 K | 0.20 K | 0.66 K | -1.10 K | 0.30 K | 3.45 K | -0.51 K | 2.46 K | Cc1cc(F)ccc1NC(=O)C1(C(=O)Nc2cccc(-c3c[nH]c4ncnc(N5CCOCC5)c34)c2)CC1 [Compound 24]
11 | 1.86 K | 0.26 K | 1.84 K | 0.35 K | 1.63 K | 1.44 K | -0.61 K | 5.98 K | O=C(Nc1cccc(-c2c[nH]c3ncnc(N4CCOCC4)c23)c1)C1(C(=O)Nc2cc(Br)c(F)cc2F)CC1 [Compound 25]
12 | 2.22 K | -0.33 K | 1.09 K | -0.55 K | -1.20 K | 2.31 K | -0.52 K | 6.98 K | O=C(Nc1cccc(-c2c[nH]c3ncnc(N4CCOCC4)c23)c1)C1(C(=O)Nc2ccc(F)c(Br)c2F)CC1 [Compound 26]
13 | 1.63 K | -0.08 K | 0.27 K | 0.67 K | -2.32 K | 3.29 K | 1.21 K | 4.57 K | O=C(Nc1cc(F)cc(Br)c1)C1(C(=O)Nc2cccc(-c3c[nH]c4ncnc(N5CCOCC5)c34)c2)CC1 [Compound 27]
14 | 12.33 K | 2.34 K | 5.15 K | 16.84 K | 1.17 K | 13.85 K | 4.48 K | 7.28 K | CC(C)(C)c1cc(NC(=O)Nc2cccc(-c3c[nH]c4ncnc(N5CCOCC5)c34)c2)n(-c2ccc3ncccc3c2)n1 [Compound 28]
15 | 12.63 K | -0.81 K | 2.79 K | 11.96 K | -10.70 K | 13.65 K | 3.34 K | 4.46 K | Cc1ccc(-n2nc(C(C)(C)C)cc2NC(=O)Nc2cccc(-c3c[nH]c4ncnc(N5CCOCC5)c34)c2)cc1 [Compound 29]
16 | 7.13 K | -1.05 K | -1.91 K | 7.61 K | -4.89 K | 8.39 K | 0.28 K | 2.15 K | Cc1ccc(-n2nc(C(C)(C)C)cc2NC(=O)Nc2cccc(-c3c[nH]c4nc(Cl)nc(N5CCOCC5)c34)c2)cc1 [Compound 30]
